The values below come from ChEMBL document CHEMBL3046225, “Effects of Enantiomerism on Fungicidal and Insecticidal Activities of (-Methoxybenzyl)isoxazoles” (J Pestic Sci, 2000).

Values after ≈ are worked out from the molar mass of the structure shown.

In one test the test system is Myzus persicae. Kind of test: Insecticidal activity against Myzus persicae (green peach aphid) assessed as mortality. The test is classed as functional.
The subject of test [1] is Pseudoperonospora cubensis. Kind of test: Fungicidal activity against Pseudoperonospora cubensis. The test is classed as functional, organism-based.
A further test has as its system Podosphaera fuliginea. Kind of test: Fungicidal activity against Podosphaera fuliginea. Format: functional, organism-based.

The term LC50 denotes the concentration lethal to half of the exposed cells or organisms. For `COC(c1cc(C)no1)c1ccccc1/C=N/N=C(\C)c1ccc(Cl)c(Cl)c1` (racemic), the median lethal concentration (LC50) with Myzus persicae came out at 53 mg/L (≈ 127 µM). Further, the EC50 in test [1] was found to be 32 ppm; in the test on Podosphaera fuliginea, 2 ppm.
For `CO[C@H](c1cc(C)no1)c1ccccc1/C=N/N=C(\C)c1ccc(Cl)c(Cl)c1`, in the test with Myzus persicae, the LC50 was more than 250 mg/L. Further, the values for the EC50 (in test [1]; with Podosphaera fuliginea) were more than 500 ppm and 8.8 ppm, respectively.
For `CO[C@@H](c1cc(C)no1)c1ccccc1/C=N/N=C(\C)c1ccc(Cl)c(Cl)c1`, in the test on Myzus persicae, the LC50 amounted to 20 mg/L (≈ 48 µM). Besides, the EC50 in test [1] came to 16 ppm; with Podosphaera fuliginea, 0.7 ppm.
